Experimental findings from PubChem BioAssay AID228 (DTP/NCI, 2004) are described below.

“And” between values parts separate entries of the source, which are not always exact repeats. Identical values can stand only once. Records with an inconclusive call do not appear.

The experiment concerns BDF1 mice, Friend leukemia sc, tumor weight T/C. Put plainly: NCI In Vivo Anticancer Drug Screen. Data for tumor model Friend Virus Leukemia (Solid) (subcutaneous) in B6D2F1 (BDF1) mice. Conditions: endpoint: mean tumor weight, higher = larger tumour. How it is done: The antitumor activity of compounds was measured in mice bearing transplantable tumors. Survival or tumor size were measured and the results are expressed as the measurement made in the treated group (T) divided by the measurement made in the vehicle treated control group (C). The tumor model used in this assay is Friend Virus Leukemia (Solid) (subcutaneous) in B6D2F1 (BDF1) mice

The mark [1] stands for this setting: dose: 100.0 mg/kg/injection, schedule: Q01DX011 (ip), vehicle: saline.
Setting [2] is: dose: 20.0 mg/kg/injection, schedule: Q01DX011 (ip), vehicle: carboxymethylcellulose (CMC).
The mark [3] stands for this setting: dose: 40.0 mg/kg/injection, schedule: Q01DX011 (ip), vehicle: carboxymethylcellulose (CMC).
The mark [4] stands for this setting: dose: 10.0 mg/kg/injection, schedule: Q01DX011 (ip), vehicle: carboxymethylcellulose (CMC).
[5] abbreviates: dose: 0.5 mg/kg/injection, schedule: Q01DX011 (sc), vehicle: steriod suspending solution.
The mark [6] stands for this setting: dose: 3.0 mg/kg/injection, schedule: Q01DX011 (sc), vehicle: steriod suspending solution.
Setting [7] is: dose: 6.0 mg/kg/injection, schedule: Q01DX011 (sc), vehicle: steriod suspending solution.
[8] abbreviates: dose: 12.0 mg/kg/injection, schedule: Q01DX011 (sc), vehicle: steriod suspending solution.
Where [9] appears, read: dose: 25.0 mg/kg/injection, schedule: Q01DX011 (sc), vehicle: steriod suspending solution.
Where [10] appears, read: dose: 50.0 mg/kg/injection, schedule: Q01DX011 (sc), vehicle: steriod suspending solution.
Setting [11] is: dose: 100.0 mg/kg/injection, schedule: Q01DX011 (sc), vehicle: steriod suspending solution.
Setting [12] is: dose: 15.0 mg/kg/injection, schedule: Q01DX011 (ip), vehicle: carboxymethylcellulose (CMC).
Setting [13] is: dose: 25.0 mg/kg/injection, schedule: Q01DX011 (ip), vehicle: carboxymethylcellulose (CMC).
[14] abbreviates: dose: 50.0 mg/kg/injection, schedule: Q01DX011 (ip), vehicle: carboxymethylcellulose (CMC).
Setting [15] is: dose: 100.0 mg/kg/injection, schedule: Q01DX011 (ip), vehicle: carboxymethylcellulose (CMC).
[16] abbreviates: dose: 125.0 mg/kg/injection, schedule: Q01DX011 (ip), vehicle: carboxymethylcellulose (CMC).

As to `COC(=S)SCN(CSC(=S)OC)c1ccccc1Cl`, the T/C is 95 % of control (dose: 125.0 mg/kg/injection, schedule: Q01DX011 (ip), vehicle: saline) and 107 % of control (dose: 250.0 mg/kg/injection, schedule: Q01DX011 (ip), vehicle: saline).
Regarding `CCN(CC)CCN1C(=O)c2cccc3cccc(c23)C1=O`, the T/C is 106 % of control (dose: 25.0 mg/kg/injection, schedule: Q01DX011 (ip), vehicle: saline); 72 % of control (dose: 50.0 mg/kg/injection, schedule: Q01DX011 (ip), vehicle: saline); 85 % of control under setting [1].
With `CCC(=O)O[C@H]1CC[C@H]2[C@@H]3CC[C@H]4CC(=O)[C@H](C)C[C@]4(C)[C@H]3CC[C@]12C`, the T/C is, setting by setting: (dose: 42.0 mg/kg/injection, schedule: Q01DX011 (sc), vehicle: steriod suspending solution) 212 % of control; (dose: 44.1 mg/kg/injection, schedule: Q01DX011 (sc), vehicle: steriod suspending solution) 173 % of control; (dose: 83.0 mg/kg/injection, schedule: Q01DX011 (sc), vehicle: steriod suspending solution) 227 % of control; (dose: 88.2 mg/kg/injection, schedule: Q01DX011 (sc), vehicle: steriod suspending solution) 184 % of control; (dose: 176.0 mg/kg/injection, schedule: Q01DX011 (sc), vehicle: steriod suspending solution) 225 % of control; (dose: 353.0 mg/kg/injection, schedule: Q01DX011 (sc), vehicle: steriod suspending solution) 168 % of control and 213 % of control.
In the case of `CC1CC(C)OS(=O)O1` (stereo not drawn), the T/C reads like this: (dose: 44.0 mg/kg/injection, schedule: Q01DX011 (ip), vehicle: saline) 70 % of control; under setting [1], 71 % of control; (dose: 150.0 mg/kg/injection, schedule: Q01DX011 (ip), vehicle: saline) 85 % of control.
`Cn1c(=O)c2[nH]c(CCCc3nc4c([nH]3)c(=O)n(C)c(=O)n4C)nc2n(C)c1=O`: the T/C was 101 % of control under setting [2]; 94 % of control under setting [3]; 44 % of control (dose: 80.0 mg/kg/injection, schedule: Q01DX011 (ip), vehicle: carboxymethylcellulose (CMC)).
`Nc1nc(N)c2[nH]cnc2n1`: the T/C was 109 % of control (dose: 11.0 mg/kg/injection, schedule: Q01DX011 (ip), vehicle: carboxymethylcellulose (CMC)); 92 % of control (dose: 22.0 mg/kg/injection, schedule: Q01DX011 (ip), vehicle: carboxymethylcellulose (CMC)); 87 % of control (dose: 44.0 mg/kg/injection, schedule: Q01DX011 (ip), vehicle: carboxymethylcellulose (CMC)); 66 % of control and 85 % of control (dose: 88.0 mg/kg/injection, schedule: Q01DX011 (ip), vehicle: carboxymethylcellulose (CMC)).
Regarding `CN(C)c1ccc2nc3ccc(=[N+](C)C)cc-3sc2c1`, the T/C by setting is: (dose: 5.0 mg/kg/injection, schedule: Q01DX011 (ip), vehicle: carboxymethylcellulose (CMC)) 278 % of control; under setting [4], 175 % of control; under setting [2], 171 % of control; under setting [3], 235 % of control.
Take `CCC(c1ccc(O)cc1)C(CC)c1ccc(OC)cc1` (stereo not drawn): the T/C by setting is: under setting [5], 86 % of control; (dose: 1.0 mg/kg/injection, schedule: Q01DX011 (sc), vehicle: steriod suspending solution) 73 % of control; under setting [6], 60 % of control and 72 % of control; under setting [7], 61 % of control and 73 % of control; under setting [8], 43 % of control; under setting [9], 54 % of control and 48 % of control. Further, the T/C under setting [10] is 38 % of control; the T/C under setting [11] is 43 % of control; the T/C (dose: 200.0 mg/kg/injection, schedule: Q01DX011 (sc), vehicle: steriod suspending solution) is 36 % of control.
As for `O=C(c1ccc(C(=O)N2CC2)cc1)N1CC1`, the T/C by setting is: (dose: 3.0 mg/kg/injection, schedule: Q01DX011 (ip), vehicle: carboxymethylcellulose (CMC)) 79 % of control; (dose: 6.0 mg/kg/injection, schedule: Q01DX011 (ip), vehicle: carboxymethylcellulose (CMC)) 90 % of control; (dose: 12.0 mg/kg/injection, schedule: Q01DX011 (ip), vehicle: carboxymethylcellulose (CMC)) 74 % of control; (dose: 24.0 mg/kg/injection, schedule: Q01DX011 (ip), vehicle: carboxymethylcellulose (CMC)) 76 % of control.
Take `NNc1nncc2ccccc12`: the T/C is, setting by setting: (dose: 37.5 mg/kg/injection, schedule: Q01DX011 (ip), vehicle: carboxymethylcellulose (CMC)) 108 % of control; (dose: 75.0 mg/kg/injection, schedule: Q01DX011 (ip), vehicle: carboxymethylcellulose (CMC)) 66 % of control.
Regarding `OCC1OC(n2cnc3c(=S)nc[nH]c32)C(O)C1O` (stereo not drawn), the T/C is 82 % of control and 92 % of control (dose: 0.1 mg/kg/injection, schedule: Q01DX011 (ip), vehicle: carboxymethylcellulose (CMC)); 45 % of control (dose: 0.25 mg/kg/injection, schedule: Q01DX011 (ip), vehicle: carboxymethylcellulose (CMC)); 54 % of control under setting [4]; 1 % of control and 8 % of control under setting [12]; 17 % of control under setting [13]; 13 % of control under setting [14]. Moreover, the T/C was 2 % of control (dose: 62.0 mg/kg/injection, schedule: Q01DX011 (ip), vehicle: carboxymethylcellulose (CMC)); 8 % of control under setting [15]; 1 % of control under setting [16].
`C=CC1CN2CCC1CC2C(O)c1ccnc2ccc(OC)cc12` (stereo not drawn): the T/C was 104 % of control (dose: 27.0 mg/kg/injection, schedule: Q01DX011 (ip), vehicle: carboxymethylcellulose (CMC)); 202 % of control (dose: 27.0 mg/kg/injection, schedule: Q01DX011 (ip), vehicle: other); 226 % of control (dose: 27.5 mg/kg/injection, schedule: Q01DX011 (ip), vehicle: other); 114 % of control (dose: 55.0 mg/kg/injection, schedule: Q01DX011 (ip), vehicle: carboxymethylcellulose (CMC)); 263 % of control (dose: 55.0 mg/kg/injection, schedule: Q01DX011 (ip), vehicle: other); 105 % of control and 219 % of control (dose: 110.0 mg/kg/injection, schedule: Q01DX011 (ip), vehicle: other). For the same compound, the T/C reads like this: (dose: 220.0 mg/kg/injection, schedule: Q01DX011 (ip), vehicle: carboxymethylcellulose (CMC)) 90 % of control; (dose: 220.0 mg/kg/injection, schedule: Q01DX011 (ip), vehicle: other) 204 % of control.
Regarding `N#CCSc1nc(N)nc2nc[nH]c12`, the T/C is 83 % of control (dose: 31.25 mg/kg/injection, schedule: Q01DX011 (ip), vehicle: carboxymethylcellulose (CMC)); 40 % of control (dose: 62.5 mg/kg/injection, schedule: Q01DX011 (ip), vehicle: carboxymethylcellulose (CMC)); 31 % of control under setting [16].
In the case of `C[C@]12C=CC(=O)C=C1CC[C@@H]1[C@@H]2[C@@H](O)C[C@@]2(C)[C@H]1CC[C@]2(O)C(=O)COC(=O)C1CCCC1`, the T/C runs as follows: (dose: 0.12 mg/kg/injection, schedule: Q01DX011 (sc), vehicle: steriod suspending solution) 103 % of control; (dose: 0.25 mg/kg/injection, schedule: Q01DX011 (sc), vehicle: steriod suspending solution) 102 % of control; under setting [5], 95 % of control; under setting [6], 46 % of control; under setting [7], 47 % of control; (dose: 6.3 mg/kg/injection, schedule: Q01DX011 (sc), vehicle: steriod suspending solution) 38 % of control. The T/C was 33 % of control under setting [8]; 25 % of control (dose: 12.5 mg/kg/injection, schedule: Q01DX011 (sc), vehicle: steriod suspending solution); 10 % of control and 24 % of control under setting [9]; 8 % of control and 14 % of control under setting [10]; 7 % of control under setting [11].
On to `CCOC(=O)Sc1ncnc2nc[nH]c12`, for which the T/C (dose: 7.5 mg/kg/injection, schedule: Q01DX011 (ip), vehicle: carboxymethylcellulose (CMC)) was 44 % of control; the T/C under setting [12] was 48 % of control; the T/C under setting [13] was 29 % of control and 40 % of control; the T/C under setting [14] was 17 % of control; the T/C under setting [15] is 2 % of control.
Consider `CO[C@H]1CC[C@@]2(C)[C@@H](CC[C@H]3[C@@H]4C[C@H](O)C[C@@]4(C)CC[C@@H]32)C1`, for which the T/C reads like this: (dose: 10.0 mg/kg/injection, schedule: Q01DX011 (sc), vehicle: steriod suspending solution) 108 % of control; (dose: 15.0 mg/kg/injection, schedule: Q01DX011 (sc), vehicle: steriod suspending solution) 104 % of control.
